From patent US20040102442A1, “Remedies for alzheimer's disease” (priority 2000, published 2004)

Target: T1, Human type-X sPLA2 (Homo sapiens, UniProt O15496)
T1 construct: made in house; host or cells: CHO cells, stably transfected with a pSVL expression vector; culture supernatant used as the enzyme source
T1 sequence (O15496 43-165): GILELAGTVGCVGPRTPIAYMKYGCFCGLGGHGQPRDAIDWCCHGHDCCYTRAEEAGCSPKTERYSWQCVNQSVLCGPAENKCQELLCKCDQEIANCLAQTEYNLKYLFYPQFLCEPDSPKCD
Experiment: type-X sPLA2 inhibition test (chromogenic assay, diheptanoylthio PC)
Assay type: biochemical
Conditions: diheptanoylthio PC 1 mM, Triton X-100 0.3 mM, 30 min at 40° C., absorbance at 405 nm
Excerpt: cDNA sequence encoding human type-X sPLA2 (Cupillard et al., J. Biol. Chem, 1997, 272, 15745-15752) was inserted into the downstream region of the promoter of pSVL SV40 Late Promoter Expression Vector (Amersham Pharmacia Biotech Inc.) that is an expression vector for mammalian cells. The obtained expression vector was transfected into the host CHO cells with a LipofectAMINE reagent (Gibco BRL Inc.) according to the manufacture's instruction to obtain the CHO cells stably expressing human type-X sPLA2. The transfected cell was cultured in A-MEM medium containing 10% fetal calf serum for 3 days and its culture supernatant was used for the measurement of each enzyme activity.
In order to identify and evaluate an inhibitor of type-X sPLA2, the following chromogenic assay is utilized. This assay has been applied for high volume screening using a 96-well microtiterplate. A general explanation for this assay is described in “Analysis of Human Synovial Fluid Phospholipase A2 on Short Chain Phosphatidylcholine-Mixed Micelles: Development of a Spectrophotometric Assay Suitable for a Micortiterplate Reader” (Analytical Biochemistry, 204, pp 190-197, 1992 by Laure. J. Reynolds. Lori L. Hughes and Edward A. Dennis.
Human type-X sPLA2 was incubated (30 min at 40° C. (15 μl/well)) with diheptanoylthio PC (1 mM) in the presence of Triton X-100 (0.3 mM) and 5,5′-dithiobis(2-nitrobenzoic acid) (125 μM) in Tris-HCl buffer (25 mM, pH 7.5) containing CaCl2 (10 mM), KCl (100 mM), and bovine serum albumin (1.0 mg/mL). The changes in the absorbance at 405 nm were measured and the inhibition activities were calculated.

| Structure (SMILES) | IC50 [nM] |
| --- | --- |
| CCc1c(C(=O)C(N)=O)c2c(OCC(=O)O)nc(C)cn2c1Cc1cccc(-c2ccccc2)c1 [Compound 1] | 10 |
| CCc1c(C(=O)C(N)=O)c2c(OCC(=O)O)nc(C)cn2c1Cc1ccccc1Cc1ccccc1 [Compound 2] | 10 |
| CCc1c(C(=O)C(N)=O)c2c(OCC(=O)O)nc(-c3ccccc3)cn2c1Cc1ccccc1 [Compound 3] | 5 |
| CCCc1c(C(=O)C(N)=O)c2c(OCC(=O)O)nc(C)cn2c1Cc1ccccc1 [Compound 4] | 27 |
| CCCc1c(C(=O)C(N)=O)c2c(OCC(=O)O)nc(C)cn2c1CC1CCCCC1 [Compound 5] | 12 |
| CCc1c(C(=O)C(N)=O)c2c(OCC(=O)O)nc(C3CCCCC3)cn2c1Cc1ccccc1 [Compound 16] | 7 |
| CCc1c(C(=O)C(N)=O)c2c(OCC(=O)NS(=O)(=O)c3ccccc3)cccc2n1Cc1ccccc1 [Compound 18] | 16 |
